According to patent US20080103209A1, “Compounds And Methods For Treating Non-Inflammatory Pain Using Ppar Alpha Agonists” (The Regents of The University of California, priority 2004, published 2008):

Assays:
Format in all cases: in vivo, mouse
Swiss mice [1] = assay: Complete Freund's adjuvant-induced arthritis, hyperalgesia; settings: 30 mg-kg^−1 s.c., 60 min before test, day 7 and 14 after CFA
Method: (§1) Mechanical hyperalgesia was determined by measuring paw withdrawal thresholds to an increasing pressure onto the dorsal surface of the paw using an analgesimeter (Ugo Basile, Italy) with a cut-off of 250 g. Withdrawal thresholds were measured on both the ipsilateral paw (inflamed or ligated) and contralateral paw (uninflamed or unligated) 60 min after subcutaneous drug administration.
Thermal hyperalgesia was assessed by the methods of Hargreaves (Hargreaves et al., Pain, 32, 77 (1988)) by measuring the latency to withdraw the hind paws from a focussed beam of radiant heat applied to the plantar surface, using an appropriate apparatus (Ugo Basile, Italy). The cut-off time was set at 30 sec. The mice were habituated to the apparatus for 10-15 min two days prior to the experiment.

mice [2] = assay: TPA-induced ear edema (irritant contact dermatitis)
Source text: In addition to rapid-onset analgesia, PEA also exerts prolonged anti-inflammatory effects [Benvenuti, et al., Boll Soc It Biol Sper 44, 809-813 (1968); Lambert, et al., Curr Med. Chem. 9, 663-74 (2002)], which are associated with the down-regulation of pro-inflammatory proteins such as nitric oxide synthase (NOS) [Costa, et al., Br J Pharmacol 137, 413-20. (2002)]. Two models of acute inflammation were used to examine whether such effects are mediated through PPARα. First, paw edema was induced in C57B16J wild-type and PPARα^−/− mice by local injection of the irritant, carrageenan [Cirino, et al., Eur J Pharmacol 166, 505-10 (1989)]. […] Next, ear edema was produced in CD1 mice by topical administration of the phorbol ester, 12-O-tetradecanoylphorbol-13-acetate (TPA) [Sheu, et al., J Invest Dermatol., 94-101. (2002)]. […] In a parallel set of experiments, the effects of PEA (20 μg) on TPA-induced edema were tested in C57B16J wild-type and PPARα^−/− mice. […] Together, these findings indicate that PEA reduces acute nociception and inflammation through activation of PPARα.
As previous described procedure [Sheu, et al., J Invest Dermatol., 94-101. (2002)], 12-O-tetradecanoylphorbol-13-acetate (TPA) was dissolved in acetone (0.03%, w v^−1) and topically delivered with a pipette to the inner and outer surfaces (10 μl/side) of mice ears. Experimental agents were dissolved in acetone and delivered topically (20 μl/side) 45 minutes and 4 hours after TPA. 18 hours after TPA administration, the mice were euthanized with CO2 and the ears punched (diameter=2 mm) four times. The 4 excised punches of skin were combined and weighed to assess edema.

mice [3] = assay: Formalin-evoked pain behavior (hind paw licking); settings: for early and late phase formalin-evoked nociception, combination with anandamide: 0.1 μg/paw of each; for anti-inflammatory effect (paw weight) after formalin: 50 μg/paw, 45 minutes after intraplantar formalin, C57BL/6J mice
Method: Administration of formalin into the mouse hind paw evokes a pain behavior consisting of two temporally distinct phases of licking and flexing of the injected limb (Dubuisson, et al., Pain 4, 161-74 (1977)). The first phase, which starts immediately after formalin injection and lasts 5-10 min, is due to activation of nociceptive fibers and is accompanied by the local release of nitric oxide and adenosine [Dickenson, et al., Neurosci Lett 83, 207-11 (1987); Omote, et al., Brain Res 787, 161-4 (1998); Omote et al., 2000; Liu, et al., J Neurochem 80, 562-70 (2002)]. Following a quiescent interval of 10-15 minutes, a second phase of nociceptive behavior appears, which is associated with local inflammation [Rosland, et al., Pain 42, 235-42 (1990)] and central sensitization [Coderre, et al., J Neurosci 12, 3665-70 (1992)]. […] (2001); Farquuar-Smith, 2002]. […] The effects of PEA in C57BL/6J mice in which the PPARα gene had been deleted by homologous recombination (PPARα^−/−)[Lee, et al., Mol Cell Biol 15, 3012-22 (1995)] were examined to determine whether PPARα contributes to these properties.
Although PPARα is known to regulate the inflammatory response [Devchand, et al., Nature 384, 39-43. (1996); Cabrero, et al., Curr Drug Targets Inflamm Allergy 1, 243-8 (2002); Berger, et al., Annu Rev Med 53, 409-35 (2002); Chinetti, et al., Inflamm Res 49, 497-505 (2000)], its roles in the modulation of acute nociceptive pain remain unexplored. A series of structurally diverse PPAR-α agonists were tested for their ability to reduce pain behavior in an animal model of chemical tissue damage. Injection of formalin into the mouse hind paw evokes a nocifensive behavior consisting of two distinct phases. The first phase results from direct activation of nociceptive fibers and starts immediately after formalin administration, while the second phase develops over a period of approximately 60 min and is associated with local inflammation and central sensitization.
Mice received intraplantar injections of formalin (5% vol/vol, 10 μl) in saline containing polyethylene glycol (5%) and Tween 80 (5%). The duration of paw licking was monitored by an observer for periods of 0-15 min (early or first phase) and 15-45 min (late or second phase) immediately after formalin administration.
Formalin test. Formalin (5%, 10 μl)-induced paw licking was monitored for 0-15 min (first phase) and 15-45 min (second phase) as described (Calignano, et al., Nature 394, 277-81 (1998).

Swiss mice [4] = assay: Prolonged carrageenan-induced paw oedema, hyperalgesia and oedema; settings: 30 mg-kg^−1 s.c. on the third day of carrageenan treatment
Source text: The ability of PPARα agonists to attenuate hyperalgesia was further explored in two mouse models of subchronic inflammation: (i) experimental arthritis elicited by intradermal injection of complete Freund's adjuvant (CFA) into the base of the tail (Whiteley et al., Current Protocols in Pharmacology, 2, 5.5.1-5.5.5. (2001)); and (ii) prolonged oedema induced by repeated carrageenan injections into the paw (Otterness et al., Methods Enzymol, 162, 320 (1988)). […] Both drugs, but not their vehicle, suppressed mechanical (FIG. 7A, 7B) and thermal (data not shown) sensitivity.
Carrageenan-induced paw oedema. An inflammatory response was initiated in the left hindpaw of male Swiss mice by injecting %-carrageenan (1% weight-vol^−1 in sterile saline, 50 μl) using a 27-gauge needle, and maintained it by repeating the injections on day 3, 7 and 14 after the first administration. Paw oedema was measured using a mouse plethysmometer (Ugo Basile, Italy) or by weighing the excised paw.
as §1

[5] = topical co-application, CD1 mice

Row | SMILES | mechanical and thermal sensitivity in CFA arthritis (Swiss mice [1]) | TPA-induced edema in wild-type and PPARα−/− mice (mice [2]; PEA 20 μg, C57Bl6J wild-type and PPARα−/− mice) | TPA-induced ear edema formation (mice [2]; [5]) | ED50, TPA-induced ear edema (mice [2]; topical co-application, CD1 mice, n=5) [μg per ear] | early and late phase formalin-evoked nociception, combination with anandamide (mice [3]; Swiss mice) | anti-inflammatory effect (paw weight) after formalin (mice [3]) | formalin pain in PPARα−/− mice (mice [3]; 50 μg i.pl.) | ED50 of antinociceptive effect in the formalin model (mice [3]; i.pl.) [µg] | phase I and II formalin pain in wild-type mice (mice [3]; wild-type C57BL6 mice, 50 μg i.pl.) | mechanical sensitivity thresholds, carrageenan (Swiss mice [4]) | paw oedema, carrageenan (Swiss mice [4]) | anti-inflammatory activity on TPA-induced edema in PPARα−/− mice (mice [2]; PPARα−/− mice) | first- and second-phase nociception (mice [3]; Swiss mice, i.pl. together with formalin, GW7647 0.1-50 μg, Wy-14643 50-200 μg, fenofibric acid 100-400 μg) | average half-maximal effective dose (ED50) to reduce first-phase pain (mice [3]; intraplantar with formalin, Swiss mice, ten experiments) [µg]
1 | CCCCCCCCCCCCCCCC(=O)NCCO [PEA, palmitoylethanolamide] | suppressed | effective only in wild-type animals | attenuated | 8.9 | synergistically inhibit | absence of anti-inflammatory effects | absent | 7.4 | attenuated these responses only in wild-type animals | normalized mechanical sensitivity thresholds | no effect |  |  | 
2 | CC(C)(Sc1ccc(CCN(CCCCC2CCCCC2)C(=O)NC2CCCCC2)cc1)C(=O)O [GW7647] | suppressed |  | attenuated |  | Mimicry of this synergism | absence of anti-inflammatory effects | failed to respond |  |  | normalized mechanical sensitivity thresholds | no effect | residual, albeit weak anti-inflammatory activity | attenuated first- and second-phase nociception in a dose-dependent manner | 9.9
